Experiments:
melanoma B16-F10 = experiment: Subcutaneous B16-F10 melanoma, manganese colloid with cyclophosphamide; assay type: in vivo, mice; conditions: 14 days after inoculation; colloid 5 mg/kg i.m. every two days; CTX 140 mg/kg i.p. day 6, 9, 12
[1] = tested on: inflammatory factors IL-1β and IL-18; assay type: cell-based, mouse
IL-1β = experiment: Induction of inflammatory factor IL-1β by manganese products; assay type: cell-based; conditions: FIG. 2B
Experimental: Each of the products was tested.

[2] = tested on: mouse peritoneal macrophages; assay type: cell-based
[3] = 20 μg manganese i.m. in 100 μl saline
Experimental: The mice were randomly divided into 2 groups according to body weight, namely: intramuscular injection of MnCl2 solution group (20 μg MnCl2 dissolved in 100 μl saline), and intramuscular injection of manganese colloid group (20 μg manganese colloid suspended in 100 μl saline). 20 μg here refers to the mass of the element manganese. At different times after the injection, 0.1 g of the muscle at the injection site was taken, digested with a microwave digestion apparatus, and then the content of the element manganese was determined by ICP-MS (Thermo X SERIES II).

influenza virus = tested on: influenza virus; design: species or system mice; conditions: mouse, in vivo
B16-OVA tumor = experiment: B16-OVA tail vein tumor metastasis model after immunization; assay type: in vivo, mice; conditions: 21 days after tumor injection
Experimental: Mn2OHPO4 colloid and aluminum adjuvant were mixed respectively with antigen OVA to immunize mice. Immunizations were performed 3 times with once every 7 days to activate the immune response in the body. B16-OVA tumor was injected into the tail vein to establish a tumor metastasis model. The mice were sacrificed 21 days after the tumor injection, and the lung tissues were taken out.

B16/OVA melanoma cells = experiment: B16/OVA melanoma subcutaneous in situ tumor model after immunization; assay type: in vivo, mice; conditions: 21 days after tumor inoculation; immunized three times with OVA ± adjuvant
Source text: The mice were randomly divided into 4 groups according to body weight: blank control group (con), OVA control group, OVA and manganese colloid group (OVA+Mn), and OVA and aluminum adjuvant group (OVA+Al). After immunizing the mice three times according to the experimental scheme (once every 7 days), the B16/OVA melanoma cells were subcutaneously inoculated to establish an in situ tumor model. […] 21 days after tumor inoculation, the average tumor size of mice in the control group was 1906 mm^3, the average tumor size of mice in the OVA group was 925.5 mm^3, the average tumor size of mice immunized with manganese colloid was 222.9 mm^3, and the average tumor size of mice in the aluminum adjuvant group was 1946 mm^3, as shown in FIG. 14B.

O=P1(N(CCCl)CCCl)NCCCO1 (stereo not shown) [CTX, cyclophosphamide monohydrate]
tumor size (melanoma B16-F10): 393.9 mm^3

[Cl][Mn][Cl] [MnCl2]
ability to activate inflammatory factors (caspase 1 and IL-1β cleavage, IL-1β and IL-18) [1]: significantly stronger than that of aluminum adjuvant | ability to activate inflammatory factors in NLRP3 knockout cells [1]: significantly lowered | ability to activate inflammatory factors, MnCl2 compared with manganese colloid (IL-1β): have the same ability to activate inflammatory factors | expression of type I interferon (ISG54, Viperin, total type I interferon in supernatant) [2]: can activate the expression of type I interferon | retention at the injection site (manganese content in muscle) [3]: quickly metabolized

CTB
inflammation in the lungs (influenza virus): a small amount of inflammation in lung | weight of the mice after influenza infection (influenza virus): recovered slightly after a slight weight loss

B1: OVA: ovalbumin antigen (InvivoGen, #vac-pova), given without adjuvant (protein, UniProt P01012 2-386, looked up)
Ovalbumin: GSIGAASMEFCFDVFKELKVHHANENIFYCPIAIMSALAMVYLGAKDSTRTQINKVVRFDKLPGFGDSIEAQCGTSVNVHSSLRDILNQITKPNDVYSFSLASRLYAEERYPILPEYLQCVKELYRGGLEPINFQTAADQARELINSWVESQTNGIIRNVLQPSSVDSQTAMVLVNAIVFKGLWEKAFKDEDTQAMPFRVTEQESKPVQMMYQIGLFRVASMASEKMKILELPFASGTMSMLVLLPDEVSGLEQLESIINFEKLTEWTSSNVMEERKIKVYLPRMKMEEKYNLTSVLMAMGITDVFSSSANLSGISSAESLKISQAVHAAHAEINEAGREVVGSAEAGVDAASVSEEFRADHPFLFCIKHIATNAVLFFGRCVSP
melanomas on the lungs (B16-OVA tumor): a certain number of melanomas | average tumor size (B16/OVA melanoma cells): 925.5 mm^3

Source: patent US12324814B2, “Manganese composition for enhancing immunity” (PEKING UNIVERSITY, priority 2019, dated 2025)
